**Q.** Which melting point does the source give for `CC=C(c1ccccc1)c1ccc(OC)c(OC)c1` [Example 5, 1-(3,4-Dimethoxyphenyl)-1-phenylprop-1-ene] here?
**A.** The melting point was 72 to 73 °C.

**Q.** For `CC=C(c1ccc(OC)c(OC)c1)c1ccc(OC)c(OCC)c1` [Example 6, 1-(3,4-Dimethoxyphenyl)-1-(3-ethoxy-4-methoxyphenyl)prop-1-ene], which melting point is on record?
**A.** Its melting point is 65.5 to 68 °C.

**Q.** With `CCOc1cc(C(=CC#N)c2ccccc2)ccc1OC` [Example 8, 3-(3-Ethoxy-4-methoxyphenyl)-3-phenylacrylonitrile] as the compound, how does the melting point read?
**A.** The melting point was 74 to 77 °C.

**Q.** Which melting point does the source give for `COc1cc(OC)cc(C(=CC#N)c2ccc(OC)c(OC)c2)c1` [Example 10, 3-(3,4-Dimethoxyphenyl)-3-(3′,5′-dimethoxyphenyl)-acrylonitrile] here?
**A.** The melting point was 88 to 90 °C.

**Q.** For `COc1ccc(C(=CC#N)c2cccc([N+](=O)[O-])c2)cc1OC` [Example 11, 3-(3,4-Dimethoxyphenyl)-3-(3′-nitrophenyl)acrylonitrile], which melting point is on record?
**A.** Its melting point is 117.5 to 120 °C.

**Q.** Which melting point does the source give for `COc1ccc(C(=O)c2cccc(N)c2)cc1OC` [Example 13, 3,4-Dimethoxy-3′-aminobenzophenone] here?
**A.** Its melting point is 157 to 175 °C.

**Q.** Which melting point does the source give for `COc1ccc(C(=CC#N)c2ccc([N+](=O)[O-])cc2)cc1OC` [Example 14, 3-(3,4-Dimethoxyphenyl)-3-(4-nitrophenyl)acrylonitrile] here?
**A.** The melting point was 117.5 to 120 °C.

**Q.** For `COc1ccc(C(=O)c2ccc(N)cc2)cc1OC` [Example 16, 3,4-Dimethoxy-4′-aminobenzophenone], which melting point is on record?
**A.** Its melting point is 189 to 191 °C.

**Q.** For `COc1ccc(C(=CC#N)c2ccc(C)cc2)cc1OC` [Example 17, 3-(3,4-Dimethoxyphenyl)-3-(4-methylphenyl)acrylonitrile], which melting point is on record?
**A.** The melting point was 83.5 to 86.5 °C.

**Q.** For `COc1ccc(C(=CC#N)c2ccc(-c3ccccc3)cc2)cc1OC` [Example 18, 3-(4-Biphenylyl)-3-(3,4-dimethoxyphenyl)acrylonitrile], which melting point is on record?
**A.** Its melting point is 132 to 134 °C.

**Q.** With `COc1ccc(C(=CC#N)c2ccc(F)cc2)cc1OC` [Example 19, 3-(3,4-Dimethoxyphenyl)-3-(4′-fluorophenyl)acrylonitrile] as the compound, how does the melting point read?
**A.** Its melting point is 100 to 102 °C.

**Q.** With `COc1ccc(C(=CC#N)c2ccc3ccccc3c2)cc1OC` [Example 20, 3-(3,4-Dimethoxyphenyl)-3-naphth-2-ylacrylonitrile] as the compound, how does the melting point read?
**A.** Its melting point is 121 to 123 °C.

**Q.** For `COc1ccc(C(=CC#N)c2ccc3c(c2)OCO3)cc1OC` [Example 21, 3-(3,4-Dimethoxyphenyl)-3-(3,4-methylenedioxyphenyl)acrylonitrile], which melting point is on record?
**A.** The melting point was 121 to 123 °C.

**Q.** For `COc1ccc(C(=CC#N)c2ccncc2)cc1OC` [Example 22, 3-(3,4-Dimethoxyphenyl)-3-pyridin-4-ylacrylonitrile], which melting point is on record?
**A.** Its melting point is 116 to 125 °C.

**Q.** For `COc1ccc(C(=CC#N)c2ccccn2)cc1OC` [Example 23, 3-(3,4-Dimethoxyphenyl)-3-pyridin-2-ylacrylonitrile], which melting point is on record?
**A.** The melting point was 134.5 to 135.5 °C.

**Q.** For `COc1ccc(C(=CC#N)c2ccco2)cc1OC` [Example 24, 3-(3,4-Dimethoxyphenyl)-3-(2-furyl)acrylonitrile], which melting point is on record?
**A.** The melting point was 78 to 82 °C.

**Q.** Which melting point does the source give for `CCc1ccc(C(=CC#N)c2ccc(OC)c(OC)c2)cc1CC` [Example 26, 3-(3,4-Diethylphenyl)-3-(3,4-dimethoxyphenyl)acrylonitrile] here?
**A.** The melting point was 78 to 82 °C.

**Q.** With `COc1ccc(C(=O)c2c(OC)cccc2OC)cc1OC` [Example 30, 2′,6′,3,4-Tetramethoxybenzophenone] as the compound, how does the melting point read?
**A.** The melting point was 128 to 129 °C.

— patent US6479554B2, “Immunotherapeutic agents” (Celgene Corporation, priority 1996, dated 2002)
